In ChEMBL document CHEMBL1149052, “Pentacyclic triterpenes derived from Maprounea africana are potent inhibitors of HIV-1 reverse transcriptase” (J Nat Prod, 1994):
pIC50: −log10 of the molar value.

Experiments:
[1] = target: Human immunodeficiency virus type 1 reverse transcriptase (Human immunodeficiency virus 1, UniProt Q72547); assay: Inhibition of HIV1 reverse transcriptase
[2] = Inhibition of HIV2 reverse transcriptase; set-up: species or system Human immunodeficiency virus 2

Row | pIC50 [1] | pIC50 [2] | Compound
1 | 5.47 | 4.25 | CC1(C)CC[C@]2(C(=O)O)CC=C3[C@]4(C)CC[C@H]5C(C)(C)[C@@H](O)[C@H](O)C[C@]5(C)[C@H]4CC[C@@]3(C)[C@@H]2C1
2 | 4.60 | 4.10 | CC1(C)CC[C@]2(C(=O)O)CC=C3[C@]4(C)CC[C@H]5C(C)(C)[C@@H](O)CC[C@]5(C)[C@H]4CC[C@@]3(C)[C@@H]2C1 [ALEURITOLIC ACID]

Further lines, the compound ahead of its results:

Row | Compound | pIC50 [1] | pIC50 [2]
3 | CC[C@H]1CN2CCc3cc(OC)c(OC)cc3[C@@H]2C[C@@H]1CC1=NCCc2cc(OC)c(OC)cc21 | 4.85 | 
4 | CC1(C)CC[C@]2(C(=O)O)CC=C3[C@]4(C)CC[C@H]5C(C)(C)[C@@H](O)C[C@@H](O)[C@]5(C)[C@H]4CC[C@@]3(C)[C@@H]2C1 | 5.31 | 4.27
5 | CC1(C)CC[C@]2(C(=O)O)CC=C3[C@]4(C)CC[C@H]5C(C)(C)[C@@H](OC(=O)c6ccc(O)cc6)C[C@@H](O)[C@]5(C)[C@H]4CC[C@@]3(C)[C@@H]2C1 | 5.43 | 4.23
6 | CC(=O)O[C@H]1CC[C@]2(C)[C@H]3CC[C@]4(C)C(=CC[C@@]5(C(=O)O)CCC(C)(C)C[C@H]54)[C@]3(C)CC[C@H]2C1(C)C [ACETYL ALEURITOLIC ACID] | 3.87 | < 3.70
7 | CC1(C)CC[C@]2(C(=O)O)CC=C3[C@]4(C)CC[C@H]5C(C)(C)[C@@H](OC(=O)c6ccc(O)cc6)[C@H](OC(=O)c6ccc(O)cc6)C[C@]5(C)[C@H]4CC[C@@]3(C)[C@@H]2C1 | 5.43 | 4.54
8 | COc1cc2c(ccc3c4cc(OC)c(OC)cc4c[n+](C)c23)cc1O [FAGARONINE] | 4.89 | 
